Measured values reported in patent US11730751B2, “Treating and preventing motor neuron diseases using nicotinamide riboside” (Elysium Health, Inc., priority 2017, dated 2023).

How the values were obtained:
Format in all cases: in vivo
[1] = test system: transgenic SOD1 G93A mice; experiment: Motor behavior and performance tests in SOD1 mice (FIG. 3-9); settings: in words; for motor functions of SOD1 mice: FIG. 3-9, benefits only in the last weeks of the experiment
Description: (§1) 1. B6.Cg-Tg(SOD1*G93A)1Gur/J (https://www.jax.org/strain/004435)
(§2) Mice hemizygous for this SOD1-G93A (also called G93A-SOD1) transgene were viable and fertile, with transgenic expression of a G93A mutant form of human SOD1. This founder line (often referred to as G1H) was reported to have high transgene copy number. […] Motor neuron degeneration has been associated with function and/or degeneration of astrocytes, the major glial cell type of the nervous system. […] Female hemizygotes were poor breeders, and rarely produced more than one litter before the onset of disease. […] The pattern of gene expression in SOD1G93A activated microglia represented a unique ALS-specific signature. These SOD1-G93A (also called G93A-SOD1) transgenic mice were useful in studying neuromuscular disorders, including Amyotrophic Lateral Sclerosis.
(§3) Nicotinamide riboside, pterostilbene, and resveratrol were administered orally: 185 mg of nicotinamide riboside and/or 30 mg of pterostilbene or resveratrol per Kg per day were administered to the mice.
This score was based on the scale of Weydt et al. (Neuroreport 14: 1051-1054, 2003). […] When the animals reached a score of “4”, the access to food and water was facilitated by placing food pellets on the cage floor to all transgenic mice. Reaching a score of “5”, the animals were euthanized for ethical reasons. […] Changes over time in the different groups were monitored weekly from week 8 (P50) to week 20 (P140).
This score was based on the SHIRPA tail scale, procedure developed by Rogers et al. (Mamm. Genome 8: 711-713, 1997) in the MRC, United Kingdom. […] Changes over time in the different groups were monitored weekly.
Functions of the test included evaluating balance, grip strength and motor coordination of the subjects; especially in testing the effect of experimental drugs. For this test (Rota Rod, Harvard Apparatus, Holliston, Mass.), each animal was given three trials and the maximum period (seconds) that it could remain on a rotating axle (3.5 cm diameter; speed of rotation: 15 rpm) without falling was measured. Each mouse was given up to three attempts for an arbitrary limit of 1200 seconds and the longest period was recorded. Changes over time in the different groups were monitored weekly.
Motor function and deficit in rodent models of CNS disorders were evaluated. […] Each mouse was given up to three attempts for a maximum of 180 seconds and the longest period was recorded. Changes over time in the different groups were monitored weekly.
For this locomotor rating test, a flat rolling band (Treadmill, Harvard Apparatus) was used and set at an angle of 5°. […] Each mouse was given two trials and the maximum distance run and the number of electrical stimuli received during the test (not exceeding 3 seconds) were recorded. […]

[2] = test system: transgenic SOD1 G93A mice; experiment: Survival time of SOD1 G93A mice (Kaplan-Meier); settings: in words, oral 185 mg NR and/or 30 mg PT or R per Kg per day, FIG. 1-2
Description: as §1, §2, §3

[3] = test system: transgenic SOD1 G93A mice; experiment: Electrophysiological measurements (CMAP, gastrocnemius muscle after sciatic nerve stimulation) in SOD1 mice; settings: in words, FIG. 9
Procedure: Nicotinamide riboside, pterostilbene, and resveratrol were administered orally: 185 mg of nicotinamide riboside and/or 30 mg of pterostilbene or resveratrol per Kg per day were administered to the mice. Changes over time in evoked Compound Motor Action Potential (CMAP) in the gastrocnemius muscle after stimulation of the sciatic nerve were monitored at P50 (week 8) and […] (week 18). Recordings were made on a 2-channel electromyography system (Keypoint portable; Medtronic, Skovlunde, Denmark), with the high-frequency filter set at 5 kHz and the low-frequency filter set at 2 Hz. Electric stimulation produces artifacts; to reduce them, rectangular monophase electric pulses with a pulse width of 0.04 ms were used. For CMAP measurements the stimulation electrode was placed on the nerve at distance of 1 cm from the recording electrode placed on the gastrocnemius muscle through percutaneous puncture in the distal third of the paw, ipsilaterally to the surgical procedure, with a coaxial needle. The data of CMAP amplitude were expressed in millivolts, the data of latency were expressed in milliseconds and the data of nerve conduction velocity were expressed in meters per second (m/s). The number of animals tested per time point and group was of n=4.

Structure (SMILES)	motor functions of SOD1 mice [1]	survival of SOD1 mice [2]	statistical comparison with the same group without R (SOD1 vs SOD1+R; SOD1+NR vs SOD1+NR+R) ([1]; Student's t-test)	motor action potential [3]
COc1cc(/C=C/c2ccc(O)cc2)cc(OC)c1 [PT, pterostilbene]	but not PT alone improved motor functions	did not improve survival		
Oc1ccc(C=Cc2cc(O)cc(O)c2)cc1 [Resveratrol, resveratrol, reference compound]	showed no benefit	showed no benefit	did not show significant differences	
NC(=O)c1ccc[n+]([C@@H]2O[C@H](CO)[C@@H](O)[C@H]2O)c1 [NR, nicotinamide riboside]	improved motor functions			preserving motor action potential
